Key:
[1] = molecular target: T1, GyrB (gyrase subunit B) (Escherichia coli, UniProt P0AES6); assay: Ultrafiltration study of coumermycin-induced GyrB dimerization; type: biochemical, E. coli; conditions: 50 kDa molecular weight cut-off filter; GyrB:coumermycin=2:1; GyrB without coumermycin gave 54%
T1 construct: GyrB migrates predominantly at its predicted size of 27 kDa; made in house; host or cells: E. coli BL21 STAR (DE3)

[2] = molecular target: T1, GyrB (gyrase subunit B); assay: Antibiotic-triggered GyrB dimerization, DMS crosslinking and SDS-PAGE; type: biochemical, E. coli; conditions: GyrB:coumermycin=2:1, mol/mol; DMS crosslinking; denaturing PAGE; dimer at 54 kDa
Experimental: The gene for E. coli gyrase subunit B (gyrB) is tagged with the coding sequence for six histidine residues. The coding region is placed under the control of the phage T7-derived promoter and expressed in E. coli as a soluble cytoplasmatic protein. GyrB is purified via the hexahistidine tag using Ni^2+-based affinity chromatography. Coumermycin-induced dimerization of genetically engineered GyrB is evaluated by incubating the protein in the presence or absence of coumermycin (GyrB:coumermycin=2:1, mol/mol) with subsequent addition of the amine-specific bifunctional crosslinking agent dimethyl-suberimidate (DMS) and analysis of the complexes on denaturing polyacrylamide gel electrophoresis. […]
Concentration of GyrB is analyzed by the Bradford method (Biorad, Muünchen, Germany, cat. no. 500-0006) using BSA as standard. […] Antibiotic-triggered dimerization of GyrB is analyzed by incubating GyrB in the presence coumermycin A1 (GyrB:coumermycin=2:1, mol/mol; Sigma, St. Louis, Mo., cat. no. C9270) for 30 min at room temperature following covalent crosslinking of the dimers by addition of dimethyl suberimidate×2HCl (DMS, SigmaAldrich, St. Louis, Mo., cat. no. 179523) at a 10-fold molar excess with respect to GyrB for 60 min at room temperature. The dimers are analyzed on SDS-PAGE. […]

[3] = molecular target: T2, hexahistidine-tagged GyrB (Escherichia coli, UniProt P0AES6); assay: Antibiotic-dependent hydrogel formation (GyrB released into buffer); design: species or system E. coli; conditions: GyrB:coumermycin=2:1 or ten-fold molar excess of novobiocin; mixed with poly(AAm-co-Ni2+-NTA-AAm); 12 hours in PBS
T2 construct: GyrB migrates predominantly at its predicted size of 27 kDa; made in house; host or cells: E. coli BL21 STAR (DE3)
Description: The protein is subsequently mixed with poly(AAm-co-Ni^2+-NTA-AAm) at a ratio of one GyrB per 11 Ni^2+ ions chelated in the polymer backbone.

coumermycin A1
GyrB protein in filtrate [1]: 2.8%
GyrB dimer formation [2]: substantial dimer formation
GyrB-polymer complexes released into the buffer / hydrogel formation [3]: significantly reduced

Source: patent US20110151006A1, “STIMULI-RESPONSIVE HYDROGEL” (priority 2008, published 2011)
